Experimental data from patent US20170306409A1, “CANCER PATIENT SELECTION FOR ADMINISTRATION OF WNT SIGNALING INHIBITORS USING RNF43 MUTATION STATUS” (NOVARTIS AG, priority 2012, published 2017).

Assays:
Format in all cases: cell-based, human
[1] = test system: Axin2, BxPC3; assay: Axin2 qPCR assay (pathway inhibition)
Description: (§1) For reverse transcription and quantitative PCR (qPCR), total RNA was extracted from cells or tumors using the RNeasy Plus Mini Kit (Qiagen). 1 μg of RNA were reverse transcribed with Taqman Reverse Transcription Reagents (Applied Biosystems) according to the manufacturer's instruction. Quantitative PCR was performed in 12 μl reactions consisting of 0.6 μl of 20× Taqman probe and PCR primer mix, 6 μl 2× Taqman FAST Advanced Master Mix (Applied Biosystems), and 5.4 μl diluted cDNA template. The thermocycling conditions utilized were 20 seconds at 95° C., followed by 40 cycles of 1 second at 95° C. and 20 seconds at 60° C. All experiments were performed in quadruplicates. Gene expression analysis was performed using the comparative ΔΔCT method and normalized with the housekeeping gene GUSB or 18S. The Taqman probes were purchased from Applied Biosystems.

[2] = test system: Axin2, CFPAC-1; assay: Axin2 qPCR assay (pathway inhibition)
Description: as §1

[3] = test system: Axin2, Capan-1; assay: Axin2 qPCR assay (pathway inhibition)
Description: as §1

[4] = test system: Axin2, Capan-2; assay: Axin2 qPCR assay (pathway inhibition)
Description: as §1

[5] = test system: Axin2, DanG; assay: Axin2 qPCR assay (pathway inhibition)
Description: as §1

[6] = test system: Axin2, HPAFII; assay: Axin2 qPCR assay (pathway inhibition)
Description: as §1

[7] = test system: Axin2, HuPT3; assay: Axin2 qPCR assay (pathway inhibition)
Description: as §1

[8] = test system: Axin2, HuPT4; assay: Axin2 qPCR assay (pathway inhibition)
Description: as §1

[9] = test system: Axin2, KP-1NL; assay: Axin2 qPCR assay (pathway inhibition)
Description: as §1

[10] = test system: Axin2, KP1-N; assay: Axin2 qPCR assay (pathway inhibition)
Description: as §1

[11] = test system: Axin2, KP2; assay: Axin2 qPCR assay (pathway inhibition)
Description: as §1

[12] = test system: Axin2, KP3; assay: Axin2 qPCR assay (pathway inhibition)
Description: as §1

[13] = test system: Axin2, KP4; assay: Axin2 qPCR assay (pathway inhibition)
Description: as §1

[14] = test system: Axin2, L3.3; assay: Axin2 qPCR assay (pathway inhibition)
Description: as §1

[15] = test system: Axin2, MIA CaPa-2; assay: Axin2 qPCR assay (pathway inhibition)
Description: as §1

[16] = test system: Axin2, PANC-1; assay: Axin2 qPCR assay (pathway inhibition)
Description: as §1

[17] = test system: Axin2, PK1; assay: Axin2 qPCR assay (pathway inhibition)
Description: as §1

[18] = test system: Axin2, PK45H; assay: Axin2 qPCR assay (pathway inhibition)
Description: as §1

[19] = test system: Axin2, PK59; assay: Axin2 qPCR assay (pathway inhibition)
Description: as §1

[20] = test system: Axin2, PL45; assay: Axin2 qPCR assay (pathway inhibition)
Description: as §1

[21] = test system: Axin2, PSN-1; assay: Axin2 qPCR assay (pathway inhibition)
Description: as §1

[22] = test system: Axin2, PaTu-8902; assay: Axin2 qPCR assay (pathway inhibition)
Description: as §1

[23] = test system: Axin2, PaTu-8988S; assay: Axin2 qPCR assay (pathway inhibition)
Description: as §1

[24] = test system: Axin2, PaTu-8988T; assay: Axin2 qPCR assay (pathway inhibition)
Description: as §1

[25] = test system: Axin2, Panc03.27; assay: Axin2 qPCR assay (pathway inhibition)
Description: as §1

[26] = test system: Axin2, Panc04.03; assay: Axin2 qPCR assay (pathway inhibition)
Description: as §1

[27] = test system: Axin2, Panc05.04; assay: Axin2 qPCR assay (pathway inhibition)
Description: as §1

[28] = test system: Axin2, Panc10.05; assay: Axin2 qPCR assay (pathway inhibition)
Description: as §1

[29] = test system: Axin2, QGP-1; assay: Axin2 qPCR assay (pathway inhibition)
Description: as §1

[30] = test system: Axin2, SU86.86; assay: Axin2 qPCR assay (pathway inhibition)
Description: as §1

[31] = test system: Axin2, SUIT-2; assay: Axin2 qPCR assay (pathway inhibition)
Description: as §1

[32] = test system: Axin2, SW1990; assay: Axin2 qPCR assay (pathway inhibition)
Description: as §1

[33] = test system: Axin2, T3M4; assay: Axin2 qPCR assay (pathway inhibition)
Description: as §1

[34] = test system: RNF43 mutant cell lines; assay: EdU proliferation assay; details: 1 μM LGK974, 3 days
Description: Further, LGK974 induced the expression of differentiation marker MUC2, MUC5A/C in RNF43 mutant cells. LGK974 blocked EDU incorporation in RNF43 mutant cell lines, so Wnt inhibition in these cells leads to cell cycle arrest. LGK974-induced growth inhibition and cellular differentiation of RNF43 mutant cells are also obvious using Ki67 staining (anti-Ki67 (SP6) from Vector Laboratories, Burlingame, Calif., USA 94010) and Alcian Blue staining.
For the EdU proliferation assay, cells were plated in growth medium in 96 well plate at a density of 6000-12,000 cells per well, and treated with DMSO or 1 μM LGK974. After 3 days, the cells were treated with fresh growth medium containing 20 μM EdU, which was included in the Click-iT EdU Alexa Fluor 488 HCS assay kit (Invitrogen), and the plate was incubated for 2 hr at 37° C. in a humidified atmosphere containing 5% CO2. Cells were fixed with final 4% paraformaldehyde for 30 min, washed with PBS, permeabilized, and stained with 0.75% TritonX-100 and 50 μg/ml Hoechst in PBS for 30 min. After wash, the cells were proceeded EdU detection according to the instruction of Click-iT EdU assay kit. Triplet wells were performed for each condition.

Structure (SMILES): Cc1cc(-c2ncc(CC(=O)Nc3ccc(-c4cnccn4)cn3)cc2C)ccn1 [LGK974, 2-[5-methyl-6-(2-methylpyridin-4-yl)pyridin-3-yl]-N-[5-(pyrazin-2-yl)pyridin-2-yl]acetamide]
- Pathway inhibition in Axin2 qPCR assay [1]: Yes
- Pathway inhibition in Axin2 qPCR assay [2]: No
- Pathway inhibition in Axin2 qPCR assay [3]: No
- Pathway inhibition in Axin2 qPCR assay [4]: Yes
- Pathway inhibition in Axin2 qPCR assay [5]: No
- Pathway inhibition in Axin2 qPCR assay [6]: Yes
- Pathway inhibition in Axin2 qPCR assay [7]: Yes
- Pathway inhibition in Axin2 qPCR assay [8]: No
- Pathway inhibition in Axin2 qPCR assay [9]: Yes
- Pathway inhibition in Axin2 qPCR assay [10]: Yes
- Pathway inhibition in Axin2 qPCR assay [11]: Yes
- Pathway inhibition in Axin2 qPCR assay [12]: Yes
- Pathway inhibition in Axin2 qPCR assay [13]: No
- Pathway inhibition in Axin2 qPCR assay [14]: No
- Pathway inhibition in Axin2 qPCR assay [15]: No
- Pathway inhibition in Axin2 qPCR assay [16]: Yes
- Pathway inhibition in Axin2 qPCR assay [17]: Yes
- Pathway inhibition in Axin2 qPCR assay [18]: No
- Pathway inhibition in Axin2 qPCR assay [19]: Yes
- Pathway inhibition in Axin2 qPCR assay [20]: No
- Pathway inhibition in Axin2 qPCR assay [21]: Yes
- Pathway inhibition in Axin2 qPCR assay [22]: Yes
- Pathway inhibition in Axin2 qPCR assay [23]: Yes
- Pathway inhibition in Axin2 qPCR assay [24]: Yes
- Pathway inhibition in Axin2 qPCR assay [25]: Yes
- Pathway inhibition in Axin2 qPCR assay [26]: No
- Pathway inhibition in Axin2 qPCR assay [27]: Yes
- Pathway inhibition in Axin2 qPCR assay [28]: Yes
- Pathway inhibition in Axin2 qPCR assay [29]: No
- Pathway inhibition in Axin2 qPCR assay [30]: Yes
- Pathway inhibition in Axin2 qPCR assay [31]: Yes
- Pathway inhibition in Axin2 qPCR assay [32]: Yes
- Pathway inhibition in Axin2 qPCR assay [33]: No
- EDU incorporation [34]: blocked
